# From patent US4436918A, “Method for production of peptide, and its intermediate” (Takeda Chemical Industries, Ltd., priority 1981, dated 1984)
# Tests used:
# Assay in all cases: Antibacterial activity, agar dilution method (MIC)
# Format in all cases: cell-based
# [1] = system: Bacillus subtilis PCI 219; conditions: PCI219, 10^6 CFU/ml, 37° C., 18-20 hours, pH 7.0
# Experimental: (§1) The above-mentioned minimum inhibitory concentration (MIC; μg/ml) values were determined by the agar dilution method using the medium mentioned below. The inoculum size was one loopful with a viable count of 10^6 CFU/ml. Incubation was performed at 37° C. for 18-20 hours. Medium: glucose 3%, sodium glutamate 0.5%, K2 HPO4 0.05%, MgSO4.7H2 O 0.05%, KCl 0.05%, yeast extract (Difco) 0.05%, Casamino acid 0.02%, agar 1.5% (pH 7.0).
# [2] = system: Escherichia coli NIHJ JC-2; conditions: NIHJJC2, 10^6 CFU/ml, 37° C., 18-20 hours, pH 7.0
# Experimental: as §1
# [3] = system: Proteus morganii IFO 3168; conditions: Morganella morganii, IFO3168, 10^6 CFU/ml, 37° C., 18-20 hours, pH 7.0
# Experimental: as §1
# [4] = system: Proteus vulgaris IFO 3045; conditions: IFO3045, 10^6 CFU/ml, 37° C., 18-20 hours, pH 7.0
# Experimental: as §1
# [5] = system: Proteus vulgaris IFO 3988; conditions: IFO3988, 10^6 CFU/ml, 37° C., 18-20 hours, pH 7.0
# Experimental: as §1
smiles,measurement,setting,value
C[C@@H](N)C(=O)NC(C(=O)O)C1CC(O)NC1=O (stereo partly drawn) [D-Alanyl-2-(5-hydroxy-2-oxopyrrolidin-3-yl)glycine],MIC,[1],6 to 24 µg/mL
same,MIC,[2],3 to 12 µg/mL
same,MIC,[3],3 to 12 µg/mL
same,MIC,[4],0.6 to 2.4 µg/mL
same,MIC,[5],1.6 to 4.8 µg/mL
